Results as given in patent publication US20220023227A1, “SYSTEMS AND METHODS FOR FORMING NANOCAPSULES BY PULSED ELECTROSPRAYING” (priority 2020, published 2022).
Entries after “also recorded” stand apart in the source; their conditions may differ.

How the values were obtained:
4T1 tumor cells [1] = test: 4T1 mammary fat pad tumor growth and survival after 3 weekly doses; format: in vivo, BALB/c mice
Description: Highly aggressive 4T1 tumor cells were implanted into 4th mammary fat pad of BALB/c mice and treatment was started one week post-implantation and total 3 doses (one dose/week) were injected. […] Results are presented as mean±SD (3-5 mice in each group).
(§1) Murine 4T1 cells were originally isolated from a spontaneous mammary tumor in the BALB/c strain and have been reported to show characteristics of human triple-negative breast cancer (TNBC) subtype. We first implanted 50,000 4T1 tumor cells into mammary fat pad of syngeneic mice and started treatment one-week post-implantation. After 3 doses by injection (one dose/week), the treatment was terminated and mice were followed for tumor growth and survival. […] Second set of mice euthanized to examine metastatic colonization of tumor cells in the lungs 72h after the last injection.

4T1 tumor cells [2] = test: Metastatic outgrowth of disseminated 4T1 tumor cells, mice euthanized 72h after last injection; format: in vivo
Excerpt: Mice were sacrificed 3 days after the last dose injection to check the metastatic colonization of luciferase expressing 4T1 tumor cells. […] Results are presented as mean±SD (3 mice in each group).
as §1

## CC(=O)O[C@H]1C(=O)[C@@]2(C)[C@H]([C@H](OC(=O)c3ccccc3)[C@]3(O)C[C@H](OC(=O)[C@H](O)[C@@H](NC(=O)c4ccccc4)c4ccccc4)C(C)=C1C3(C)C)[C@]1(OC(C)=O)CO[C@@H]1C[C@@H]2O [naked paclitaxel, paclitaxel]
4T1 tumor cells [1]; 3 doses, one dose/week
  survival compared with tumor bearing mice that did not have any treatment: longer
4T1 tumor cells [1]; up to 42 days, FIG. 1b
  tumor size, difference between groups: no significant difference
4T1 tumor cells [2]; 72h after the last injection, 3 mice in each group, FIG. 2d-e
  metastatic colonization of tumor cells in the lungs (ex vivo lung imaging): micro metastatic colonization; also recorded: only micro metastases
4T1 tumor cells [2]; IP-injection, 72h after the last injection, FIG. 2a-b
  tumor weight: decreased the tumor weight but this decrease was not significant; also recorded: decrease the tumor weight
4T1 tumor cells [2]; ex vivo lung imaging, FIG. 2d-e
  signal intensity of luciferase in lungs, difference between groups: not significantly different
